Reference: patent publication US20210379057A1, “NUTLIN-3A FOR USE IN TREATING A MYCOBACTERIUM TUBERCULOSIS INFECTION” (Massachusetts Institute of Technology, priority 2018, published 2021)

Legend:
[1] = test system: Mycobacterium tuberculosis (Mtb) in primary human CD14+ monocyte-derived macrophages; format: cell-based
[2] = test system: Mtb infected macrophages; experiment: Macrophage death in Mtb infected macrophages; settings: Mtb infected macrophages treated with compound
[3] = test system: p53; format: cell-based, human

| Compound | Mtb control (bacterial survival, ratio of live GFP+ to total mCherry+ pixels) [1] | GFP+/RFP+ pixel area [1] | macrophage death [2] | expression of p53 [3] |
| --- | --- | --- | --- | --- |
| Cc1ccc2nc(NCCN)c3ncc(C)n3c2c1 [BMS-345541] | worsened bacterial control |  |  |  |
| O=C(Nc1cc(Cl)cc2c1[nH]c1cnccc12)c1cccnc1 [PS-1145] | worsened bacterial control |  |  |  |
| NNC(=O)c1ccncc1 [isoniazid] |  | decrease in the GFP+/RFP+ pixel area |  |  |
| COc1ccc(C2=N[C@@H](c3ccc(Cl)cc3)[C@@H](c3ccc(Cl)cc3)N2C(=O)N2CCNC(=O)C2)c(OC(C)C)c1 [nutlin-3a] | significantly increased Mtb control |  | without increasing macrophage death | enhanced expression of p53 |
